Laboratory results from paper PMC5762315, “Inhibition of polo-like kinase 4 (PLK4): a new therapeutic option for rhabdoid tumors and pediatric medulloblastoma” (Oncotarget, 2017).
Where “and” joins values, the source holds several entries; their conditions need not be identical. Equal entries are not always repeated.

How the values were obtained:
Assay in all cases: biochemical
Format in all cases: biochemical
various kinases [1] = biological target: various kinases (Homo sapiens, UniProt O76039); conditions: CDKL5
various kinases [2] = biological target: various kinases (Homo sapiens, UniProt P06239); conditions: LCK
various kinases [3] = biological target: various kinases (Homo sapiens, UniProt P10721, V559D); conditions: KIT V559D
various kinases [4] = biological target: various kinases (Homo sapiens, UniProt P11309); conditions: PIM1
various kinases [5] = biological target: various kinases (Homo sapiens, UniProt P16234); conditions: PDGFRA (PDGFR alpha)
various kinases [6] = biological target: various kinases (Homo sapiens, UniProt P17948); conditions: FLT1 (VEGFR1)
various kinases [7] = biological target: various kinases (Homo sapiens, UniProt P22607, V555M); conditions: FGFR3 V555M
various kinases [8] = biological target: various kinases (Homo sapiens, UniProt P29323); conditions: EPHB2
various kinases [9] = biological target: various kinases (Homo sapiens, UniProt P29597); conditions: kinase TYK2; ZLYTE
various kinases [10] = biological target: various kinases (Homo sapiens, UniProt P35626); conditions: ADRBK2 (GRK3)
various kinases [11] = biological target: various kinases (Homo sapiens, UniProt P35968); conditions: KDR (VEGFR2)
various kinases [12] = biological target: various kinases (Homo sapiens, UniProt P36888, D835Y); conditions: FLT3 D835Y
various kinases [13] = biological target: T1, various kinases (Homo sapiens, UniProt Q02156); conditions: kinase PRKCE (PKC epsilon); ZLYTE
T1 sequence (Q02156 1-737): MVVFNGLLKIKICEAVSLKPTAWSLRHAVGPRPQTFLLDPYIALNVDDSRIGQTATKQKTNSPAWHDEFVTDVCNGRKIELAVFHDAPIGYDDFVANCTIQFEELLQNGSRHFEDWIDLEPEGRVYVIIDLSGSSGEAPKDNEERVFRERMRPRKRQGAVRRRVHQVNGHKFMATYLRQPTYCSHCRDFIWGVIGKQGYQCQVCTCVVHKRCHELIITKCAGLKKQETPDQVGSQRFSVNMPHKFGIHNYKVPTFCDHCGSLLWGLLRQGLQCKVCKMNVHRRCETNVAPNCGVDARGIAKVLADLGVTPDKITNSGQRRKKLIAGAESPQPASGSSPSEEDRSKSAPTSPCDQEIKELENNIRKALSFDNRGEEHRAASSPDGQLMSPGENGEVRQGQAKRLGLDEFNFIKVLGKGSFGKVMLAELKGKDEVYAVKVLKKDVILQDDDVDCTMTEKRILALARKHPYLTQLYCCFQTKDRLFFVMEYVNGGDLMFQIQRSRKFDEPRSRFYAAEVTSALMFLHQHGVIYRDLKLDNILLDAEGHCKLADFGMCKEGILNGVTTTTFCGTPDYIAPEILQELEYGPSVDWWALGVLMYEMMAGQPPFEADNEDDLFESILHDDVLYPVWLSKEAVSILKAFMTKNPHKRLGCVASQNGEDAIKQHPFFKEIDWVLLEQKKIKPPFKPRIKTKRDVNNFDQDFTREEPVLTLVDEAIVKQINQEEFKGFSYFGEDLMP

various kinases [14] = biological target: T2, various kinases (Homo sapiens, UniProt Q13043); conditions: kinase STK4 (MST1); ZLYTE
T2 sequence (Q13043 1-487): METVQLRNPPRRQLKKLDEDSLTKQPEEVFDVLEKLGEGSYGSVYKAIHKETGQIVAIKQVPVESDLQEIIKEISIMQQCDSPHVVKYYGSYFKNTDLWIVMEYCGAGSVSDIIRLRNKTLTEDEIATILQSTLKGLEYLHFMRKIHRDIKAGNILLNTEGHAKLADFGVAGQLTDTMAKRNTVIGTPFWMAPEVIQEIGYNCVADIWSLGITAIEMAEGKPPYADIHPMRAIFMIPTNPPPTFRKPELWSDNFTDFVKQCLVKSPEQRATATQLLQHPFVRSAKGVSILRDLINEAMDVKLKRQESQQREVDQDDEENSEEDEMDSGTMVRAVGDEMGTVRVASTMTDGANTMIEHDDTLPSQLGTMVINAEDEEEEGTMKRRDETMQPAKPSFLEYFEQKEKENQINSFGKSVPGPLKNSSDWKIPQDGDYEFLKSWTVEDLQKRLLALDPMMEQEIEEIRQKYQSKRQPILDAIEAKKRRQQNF

various kinases [15] = biological target: various kinases (Homo sapiens, UniProt Q16816); conditions: PHKG1
various kinases [16] = biological target: various kinases (Homo sapiens, UniProt Q8IW41); conditions: MAPKAPK5 (PRAK)
various kinases [17] = biological target: T3, various kinases (Homo sapiens, UniProt Q9HBY8); conditions: kinase SGK2; ZLYTE
T3 sequence (Q9HBY8 1-367): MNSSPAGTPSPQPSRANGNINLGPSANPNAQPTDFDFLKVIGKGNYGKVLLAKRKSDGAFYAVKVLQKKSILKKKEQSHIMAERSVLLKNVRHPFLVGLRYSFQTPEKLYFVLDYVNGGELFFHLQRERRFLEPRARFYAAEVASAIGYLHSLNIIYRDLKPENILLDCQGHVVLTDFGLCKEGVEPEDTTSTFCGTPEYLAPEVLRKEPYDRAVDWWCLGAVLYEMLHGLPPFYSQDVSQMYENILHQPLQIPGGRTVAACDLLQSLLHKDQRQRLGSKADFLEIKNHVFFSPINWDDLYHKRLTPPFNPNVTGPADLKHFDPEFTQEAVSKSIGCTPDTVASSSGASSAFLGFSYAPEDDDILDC

various kinases [18] = biological target: various kinases (Homo sapiens, UniProt Q9NQU5); conditions: PAK6
various kinases [19] = biological target: various kinases (Homo sapiens, UniProt Q9UBS0); conditions: kinase RPS6KB2 (p70S6Kb); ZLYTE
Chain of various kinases (Homo sapiens, UniProt Q9UBS0) (Q9UBS0 whole entry): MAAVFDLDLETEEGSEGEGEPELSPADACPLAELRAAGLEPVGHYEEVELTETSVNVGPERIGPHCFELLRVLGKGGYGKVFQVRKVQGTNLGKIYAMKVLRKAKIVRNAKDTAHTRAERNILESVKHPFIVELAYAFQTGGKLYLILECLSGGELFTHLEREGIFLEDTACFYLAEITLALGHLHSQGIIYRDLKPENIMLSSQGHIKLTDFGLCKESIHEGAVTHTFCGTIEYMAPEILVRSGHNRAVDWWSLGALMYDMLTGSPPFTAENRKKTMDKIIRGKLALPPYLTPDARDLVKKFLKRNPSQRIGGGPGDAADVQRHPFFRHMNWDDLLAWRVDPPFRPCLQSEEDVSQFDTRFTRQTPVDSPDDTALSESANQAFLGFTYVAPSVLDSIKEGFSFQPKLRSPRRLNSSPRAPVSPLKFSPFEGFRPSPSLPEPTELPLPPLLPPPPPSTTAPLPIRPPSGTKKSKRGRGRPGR

Chain of various kinases (Homo sapiens, UniProt P29597) (P29597 whole entry): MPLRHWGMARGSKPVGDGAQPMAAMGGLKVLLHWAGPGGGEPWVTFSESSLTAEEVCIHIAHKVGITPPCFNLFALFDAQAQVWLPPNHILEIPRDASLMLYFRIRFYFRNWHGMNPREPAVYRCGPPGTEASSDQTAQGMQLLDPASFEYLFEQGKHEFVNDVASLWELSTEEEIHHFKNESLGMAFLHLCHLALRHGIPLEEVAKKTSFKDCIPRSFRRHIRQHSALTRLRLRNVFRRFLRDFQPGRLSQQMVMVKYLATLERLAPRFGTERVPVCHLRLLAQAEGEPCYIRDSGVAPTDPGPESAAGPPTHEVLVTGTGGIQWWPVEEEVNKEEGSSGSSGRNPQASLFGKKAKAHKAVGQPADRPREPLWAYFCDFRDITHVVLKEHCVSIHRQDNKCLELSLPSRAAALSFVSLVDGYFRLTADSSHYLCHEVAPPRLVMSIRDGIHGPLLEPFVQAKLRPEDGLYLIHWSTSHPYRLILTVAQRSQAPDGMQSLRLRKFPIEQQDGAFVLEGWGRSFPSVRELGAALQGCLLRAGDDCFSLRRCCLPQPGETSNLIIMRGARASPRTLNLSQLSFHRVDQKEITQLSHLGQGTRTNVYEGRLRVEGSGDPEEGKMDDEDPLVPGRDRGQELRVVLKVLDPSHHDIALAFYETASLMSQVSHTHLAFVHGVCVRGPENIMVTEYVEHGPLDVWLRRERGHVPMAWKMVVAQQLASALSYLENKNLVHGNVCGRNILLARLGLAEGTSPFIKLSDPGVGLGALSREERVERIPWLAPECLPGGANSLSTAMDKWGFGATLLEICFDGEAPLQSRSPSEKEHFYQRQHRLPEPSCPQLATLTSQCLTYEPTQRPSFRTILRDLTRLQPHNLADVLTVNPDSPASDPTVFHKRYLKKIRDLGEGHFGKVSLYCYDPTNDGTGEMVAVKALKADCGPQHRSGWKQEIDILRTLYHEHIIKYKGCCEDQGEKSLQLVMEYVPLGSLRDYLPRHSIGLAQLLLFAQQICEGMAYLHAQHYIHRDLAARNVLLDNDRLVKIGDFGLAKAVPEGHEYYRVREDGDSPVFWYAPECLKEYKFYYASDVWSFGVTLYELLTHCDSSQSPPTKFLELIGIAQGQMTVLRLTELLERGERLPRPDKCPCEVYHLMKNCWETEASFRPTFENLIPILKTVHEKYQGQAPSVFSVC
Chain of various kinases (Homo sapiens, UniProt P35968) (P35968 20-1356): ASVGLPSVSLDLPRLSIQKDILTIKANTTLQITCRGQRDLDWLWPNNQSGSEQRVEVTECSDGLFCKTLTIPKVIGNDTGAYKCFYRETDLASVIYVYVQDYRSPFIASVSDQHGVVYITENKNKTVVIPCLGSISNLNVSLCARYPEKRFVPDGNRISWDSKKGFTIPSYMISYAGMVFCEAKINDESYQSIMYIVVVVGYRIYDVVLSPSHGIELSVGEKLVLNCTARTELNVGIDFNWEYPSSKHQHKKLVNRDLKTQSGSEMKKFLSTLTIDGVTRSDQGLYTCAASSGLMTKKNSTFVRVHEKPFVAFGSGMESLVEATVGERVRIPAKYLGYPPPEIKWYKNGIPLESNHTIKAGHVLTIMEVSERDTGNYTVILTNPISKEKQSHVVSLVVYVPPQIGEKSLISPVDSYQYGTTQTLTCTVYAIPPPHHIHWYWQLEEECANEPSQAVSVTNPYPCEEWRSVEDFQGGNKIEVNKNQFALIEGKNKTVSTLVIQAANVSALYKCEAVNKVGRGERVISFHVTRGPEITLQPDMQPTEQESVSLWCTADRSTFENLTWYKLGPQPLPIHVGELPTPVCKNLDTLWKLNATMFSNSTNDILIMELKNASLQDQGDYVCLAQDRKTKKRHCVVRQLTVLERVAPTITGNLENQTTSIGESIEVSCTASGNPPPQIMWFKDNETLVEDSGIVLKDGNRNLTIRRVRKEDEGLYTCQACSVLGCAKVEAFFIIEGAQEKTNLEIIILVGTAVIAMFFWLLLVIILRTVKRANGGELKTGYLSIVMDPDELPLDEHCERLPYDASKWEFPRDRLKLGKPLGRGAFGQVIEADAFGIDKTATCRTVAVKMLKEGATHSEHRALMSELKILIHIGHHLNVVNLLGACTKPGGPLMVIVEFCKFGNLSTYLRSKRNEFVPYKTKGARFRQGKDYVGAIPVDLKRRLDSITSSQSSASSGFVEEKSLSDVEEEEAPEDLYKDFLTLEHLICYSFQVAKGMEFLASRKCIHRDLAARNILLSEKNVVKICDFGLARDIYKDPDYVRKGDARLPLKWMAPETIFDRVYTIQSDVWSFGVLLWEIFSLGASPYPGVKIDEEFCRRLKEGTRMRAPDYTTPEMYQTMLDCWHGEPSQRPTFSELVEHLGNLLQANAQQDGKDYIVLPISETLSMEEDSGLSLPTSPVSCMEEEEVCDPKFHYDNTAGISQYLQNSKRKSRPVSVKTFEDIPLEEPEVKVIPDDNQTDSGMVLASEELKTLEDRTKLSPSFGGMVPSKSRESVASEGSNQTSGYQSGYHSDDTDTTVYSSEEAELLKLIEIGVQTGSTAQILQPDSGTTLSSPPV
Chain of various kinases (Homo sapiens, UniProt P17948) (P17948 27-1338): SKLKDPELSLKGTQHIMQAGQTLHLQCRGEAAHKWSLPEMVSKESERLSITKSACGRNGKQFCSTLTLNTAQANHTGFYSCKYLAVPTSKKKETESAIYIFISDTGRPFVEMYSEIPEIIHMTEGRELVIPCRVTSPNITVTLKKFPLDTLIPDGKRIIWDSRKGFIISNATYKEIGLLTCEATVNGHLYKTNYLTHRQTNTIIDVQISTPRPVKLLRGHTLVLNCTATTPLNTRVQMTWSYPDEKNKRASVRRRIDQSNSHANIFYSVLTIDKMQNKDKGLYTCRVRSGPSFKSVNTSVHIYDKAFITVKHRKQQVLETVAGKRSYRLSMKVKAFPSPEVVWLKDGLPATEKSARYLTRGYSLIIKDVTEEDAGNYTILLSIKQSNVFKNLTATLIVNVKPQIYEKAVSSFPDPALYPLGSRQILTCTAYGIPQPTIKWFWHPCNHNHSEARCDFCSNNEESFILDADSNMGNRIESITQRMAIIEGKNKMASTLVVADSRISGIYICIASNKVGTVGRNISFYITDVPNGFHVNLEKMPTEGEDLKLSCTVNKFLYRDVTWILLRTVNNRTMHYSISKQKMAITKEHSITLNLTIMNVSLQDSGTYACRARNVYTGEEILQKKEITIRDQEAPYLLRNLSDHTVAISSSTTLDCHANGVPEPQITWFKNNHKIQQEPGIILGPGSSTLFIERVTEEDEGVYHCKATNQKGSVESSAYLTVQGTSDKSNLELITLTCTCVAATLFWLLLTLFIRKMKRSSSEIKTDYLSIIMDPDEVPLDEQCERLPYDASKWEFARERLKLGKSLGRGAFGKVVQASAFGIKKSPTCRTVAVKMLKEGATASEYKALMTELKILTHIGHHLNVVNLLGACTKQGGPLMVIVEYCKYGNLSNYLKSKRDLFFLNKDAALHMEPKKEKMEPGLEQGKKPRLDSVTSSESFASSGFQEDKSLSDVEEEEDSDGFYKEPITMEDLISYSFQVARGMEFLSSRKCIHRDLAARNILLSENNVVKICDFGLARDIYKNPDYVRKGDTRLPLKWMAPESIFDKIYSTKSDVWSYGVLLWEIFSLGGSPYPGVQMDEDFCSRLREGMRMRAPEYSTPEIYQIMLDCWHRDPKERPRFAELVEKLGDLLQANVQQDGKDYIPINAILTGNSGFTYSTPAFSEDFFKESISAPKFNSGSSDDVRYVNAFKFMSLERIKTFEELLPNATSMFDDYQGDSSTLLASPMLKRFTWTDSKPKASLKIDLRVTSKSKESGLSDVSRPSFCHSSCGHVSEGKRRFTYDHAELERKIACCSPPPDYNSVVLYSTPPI
Chain of various kinases (Homo sapiens, UniProt P06239) (P06239 whole entry): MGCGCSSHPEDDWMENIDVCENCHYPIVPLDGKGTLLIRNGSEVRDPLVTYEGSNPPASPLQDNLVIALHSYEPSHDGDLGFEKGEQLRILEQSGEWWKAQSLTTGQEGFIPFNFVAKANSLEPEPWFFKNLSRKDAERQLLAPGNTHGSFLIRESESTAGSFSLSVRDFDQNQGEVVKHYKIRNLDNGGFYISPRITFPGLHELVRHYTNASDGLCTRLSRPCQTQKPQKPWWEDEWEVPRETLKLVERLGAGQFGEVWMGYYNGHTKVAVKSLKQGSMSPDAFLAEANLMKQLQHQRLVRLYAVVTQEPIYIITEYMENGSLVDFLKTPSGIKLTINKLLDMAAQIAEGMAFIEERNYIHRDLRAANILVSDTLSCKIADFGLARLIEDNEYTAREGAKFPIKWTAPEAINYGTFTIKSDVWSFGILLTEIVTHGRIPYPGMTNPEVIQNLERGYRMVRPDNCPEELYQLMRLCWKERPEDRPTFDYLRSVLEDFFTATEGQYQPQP

## COc1ccc2c(c1)[C@]1(C[C@H]1c1ccc3c(/C=C/c4ccc(CN5C[C@@H](C)O[C@@H](C)C5)cc4)n[nH]c3c1)C(=O)N2 [CFI-400945]
Various kinases [1]
  % Inhibition: 5%
Various kinases [2]
  % Inhibition: 39% and 40%
Various kinases [3]
  % Inhibition: 9% and 10%
Various kinases [4]
  % Inhibition: 2% and 3%
Various kinases [5]
  % Inhibition: 3% and 2%
Various kinases [6]
  % Inhibition: 0% and 1%
Various kinases [7]
  % Inhibition: 56%
Various kinases [8]
  % Inhibition: 5%
Various kinases [9]
  % Inhibition Average: 2%
  % Inhibition Duplicate #1: 2%
  % Inhibition Duplicate #2: 2%
Various kinases [10]
  % Inhibition: 4% and 7%
Various kinases [11]
  % Inhibition: 16% and 15%
Various kinases [12]
  % Inhibition: 27% and 29%
Various kinases [13]
  % Inhibition Average: -2%
  % Inhibition Duplicate #1: -5%
  % Inhibition Duplicate #2: 1%
Various kinases [14]
  % Inhibition Average: 23%
  % Inhibition Duplicate #1: 22%
  % Inhibition Duplicate #2: 24%
Various kinases [15]
  % Inhibition: 10% and 7%
Various kinases [16]
  % Inhibition: 2% and 4%
Various kinases [17]
  % Inhibition Average: 5%
  % Inhibition Duplicate #1: 4%
  % Inhibition Duplicate #2: 5%
Various kinases [18]
  % Inhibition: 12% and 7%
Various kinases [19]
  % Inhibition Average: 5%
  % Inhibition Duplicate #1: 5%
  % Inhibition Duplicate #2: 4%
